{"source": "paper PMC10357585", "about": "(Biochemistry, 2023)", "key": {"TcHGXPRT [1]": {"biological_target": "T1, TcHGXPRT (Trypanosoma cruzi, UniProt Q4DRC3)", "T1 sequence (Q4DRC3 1-231)": "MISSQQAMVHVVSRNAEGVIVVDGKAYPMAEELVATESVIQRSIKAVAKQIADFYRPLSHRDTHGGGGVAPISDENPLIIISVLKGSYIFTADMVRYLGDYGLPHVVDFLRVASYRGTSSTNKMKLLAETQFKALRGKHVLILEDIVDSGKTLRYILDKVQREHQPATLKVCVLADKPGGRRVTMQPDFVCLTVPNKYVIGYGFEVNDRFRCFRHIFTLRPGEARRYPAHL", "assay": "Initial rate studies of TcHGXPRT, GMP biosynthesis", "assay_type": "biochemical", "conditions": "for kcat: GMP biosynthesis; for Ki: Ki,PRPP"}, "TcHGPRT": {"test_system": "TcHGPRT", "conditions": "variable substrate PRPP (20–215 μM); ref Wenck et al., 2004.[30]; cited from earlier work"}, "TcA (HGPRT)": {"test_system": "TcA (HGPRT)", "conditions": "variable 6-oxopurine, PRPP 1 mM, ref Glockzin et al., 2022.[43]; cited from earlier work"}, "PfHGXPRT": {"test_system": "PfHGXPRT", "conditions": "read-out: apparent Km, Xan as substrate; cited from earlier work"}, "TcHGXPRT [2]": {"biological_target": "T1, TcHGXPRT", "assay": "Product inhibition studies of TcHGXPRT", "assay_type": "biochemical", "conditions": "PRPP 1 mM"}, "TcHGXPRT [3]": {"biological_target": "T1, TcHGXPRT", "assay": "Dead-end inhibition studies of TcHGXPRT", "assay_type": "biochemical"}, "[4]": {"conditions": "variable substrate PRPP (1–78 μM) at fixed Gua levels"}, "[5]": {"conditions": "variable substrate Guanine (10–300 μM) at fixed PRPP levels"}}, "note": "Marks after values point to notes of the source that are not given here."}
{"smiles": "O=P(O)(O)OC[C@H]1O[C@H](OP(=O)(O)OP(=O)(O)O)[C@H](O)[C@@H]1O", "note": "[PRPP, 5-phospho-D-ribose 1-pyrophosphate]", "values": [{"measurement": "kcat", "setting": "TcHGXPRT [1]; [4]", "result": "0.44 ± 0.02", "unit": "s^–1"}, {"measurement": "Ki", "setting": "TcHGXPRT [1]; [5]", "result": "0.7 ± 0.2", "unit": "µM"}, {"measurement": "Ki", "setting": "TcHGXPRT [1]; [4]", "result": "0.6 ± 0.3", "unit": "µM"}, {"measurement": "KPRPP", "setting": "TcHGPRT", "result": "32 ± 5 ^d μM"}, {"measurement": "kcat/KPRPP", "setting": "TcHGPRT", "result": "1010 ^d × 10^3 M^–1 s^–1"}]}
{"smiles": "O=c1[nH]c(=O)c2nc[nH]c2[nH]1", "note": "[Xan, xanthine]", "values": [{"measurement": "Km", "setting": "TcA (HGPRT)", "result": "160 ± 40", "unit": "µM"}, {"measurement": "kcat", "setting": "TcA (HGPRT)", "result": "0.005 ± 0.0006 ^b s^–1"}, {"measurement": "Km", "setting": "PfHGXPRT", "result": "189 to 420", "unit": "µM"}]}
{"smiles": "Nc1nc2nc[nH]c2c(=O)[nH]1", "note": "[Gua, guanine]", "values": [{"measurement": "kcat", "setting": "TcHGXPRT [1]; [5]", "result": "0.46 ± 0.01", "unit": "s^–1"}, {"measurement": "Km", "setting": "TcA (HGPRT)", "result": "19 ± 1", "unit": "µM"}, {"measurement": "kcat", "setting": "TcA (HGPRT)", "result": "32 ± 1 ^b s^–1"}, {"measurement": "KGua", "setting": "TcHGPRT", "result": "12 ± 1 ^d μM"}, {"measurement": "kcat/KGua", "setting": "TcHGPRT", "result": "2650 ^d × 10^3 M^–1 s^–1"}]}
{"smiles": "O=c1[nH]cnc2nc[nH]c12", "note": "[Hx, hypoxanthine]", "values": [{"measurement": "Km", "setting": "TcA (HGPRT)", "result": "13 ± 4", "unit": "µM"}, {"measurement": "kcat", "setting": "TcA (HGPRT)", "result": "32 ± 1 ^b s^–1"}]}
{"smiles": "O=P(O)(O)OP(=O)(O)O", "note": "[PPi, pyrophosphate]", "values": [{"measurement": "Inhibition pattern", "setting": "TcHGXPRT [2]; PPi (0–200 μM) vs. variable Xan (2.5–150 μM)", "result": "NC ^e"}, {"measurement": "Kii", "setting": "TcHGXPRT [2]; PPi vs. variable Xan", "result": "1400 ± 400", "unit": "µM"}, {"measurement": "Ki", "setting": "TcHGXPRT [2]; read-out: Kis, PPi vs. variable Xan", "result": "190 ± 40", "unit": "µM"}]}
{"smiles": "O=c1[nH]c(=O)c2[nH]ccc2[nH]1", "note": "[9-deazaxanthine]", "values": [{"measurement": "Ki", "setting": "TcHGXPRT [3]", "result": "70 ± 10", "unit": "µM"}, {"measurement": "Inhibition pattern", "setting": "TcHGXPRT [3]; 9-deazaxanthine (0–250 μM) vs. variable Xan (3–100 μM), PRPP 1 mM", "result": "C ^e"}, {"measurement": "Inhibition pattern", "setting": "TcHGXPRT [3]; 9-deazaxanthine (0–600 μM) vs. variable PRPP (23–750 μM), Xan 120 μM", "result": "UC ^e"}, {"measurement": "Kii", "setting": "TcHGXPRT [3]; 9-deazaxanthine vs. variable PRPP, Xan 120 μM, 37 °C, pH 8.3, 12 mM MgCl2", "result": "490 ± 40", "unit": "µM"}]}
